What was measured:
[1] = system: ivyleaf morning glory; assay: Reference test example 1: foliar treatment, herbicidal activity; type: in vivo; settings: foliage spray of emulsifiable concentrate, 125 g/ha, examined 12 days after spraying, greenhouse
Method: (§1) Cylindrical plastic pots, each of which has a diameter of 10 cm and a depth of 10 cm, were filled with soil, and then seeded with ivyleaf morning glory and velvetleaf. The test plants were grown in a greenhouse for 10 days. Then, each of the compounds 1, 2, 3, 6, 8, 12, 15, 16, 19, 21, 40, 59 and 76 was formulated into an emulsifiable concentrate according to Reference formulation example 2, and diluted with water containing a spreading agent. The dilution was uniformly sprayed over the foliage of the test plants with a sprayer at a rate of 1000 liters per hectare. After spraying, the test plants were grown in the greenhouse for 12 days, and the herbicidal activity was examined.

[2] = system: velvetleaf; assay: as above; type: in vivo; settings: foliage spray of emulsifiable concentrate, 125 g/ha, examined 12 days after spraying, greenhouse
Method: as §1

[3] = system: ivyleaf morning glory; assay: Reference test example 2: soil surface treatment, herbicidal activity; type: in vivo; settings: soil surface spray of emulsifiable concentrate, 500 g/ha, examined 19 days after spraying, greenhouse
Text: (§2) Cylindrical plastic pots, each of which has a diameter of 10 cm and a depth of 10 cm, were filled with soil, and then seeded with ivyleaf morning glory and velvetleaf. Each of the compounds 1, 2, 3, 6, 8, 12, 15, 16, 19, 21, 40, 59 and 76 was formulated into an emulsifiable concentrate according to Reference formulation example 2, and diluted with water. The dilution was uniformly sprayed over the soil surface with a sprayer at a rate of 1000 liters per hectare. After spraying, the test plants were grown in the greenhouse for 19 days, and the herbicidal activity was examined.

[4] = system: velvetleaf; assay: as above; type: in vivo; settings: soil surface spray of emulsifiable concentrate, 500 g/ha, examined 19 days after spraying, greenhouse
Text: as §2

SMILES: Cn1c(C(F)(F)F)cc(=O)n(-c2cc(Oc3cccnc3OCC(=O)O)c(Cl)cc2F)c1=O [Compound 1]
- herbicidal activity (control of growth) [1]: perfectly controlled the growth
- herbicidal activity (control of growth) [2]: perfectly controlled the growth
- herbicidal activity (control of growth) [3]: perfectly controlled the growth
- herbicidal activity (control of growth) [4]: perfectly controlled the growth

SMILES: COC(=O)COc1ncccc1Oc1cc(-n2c(=O)cc(C(F)(F)F)n(C)c2=O)c(F)cc1Cl [Compound 2, 3-[2-chloro-4-fluoro-5-(3-methyl-2,6-dioxo-4-trifluoromethyl-1,2,3,6-tetrahydropyrimidin-1-yl)phenoxy]-2-(methoxycarbonylmethoxy)pyridine]
- herbicidal activity (control of growth) [1]: perfectly controlled the growth
- herbicidal activity (control of growth) [2]: perfectly controlled the growth
- herbicidal activity (control of growth) [3]: perfectly controlled the growth
- herbicidal activity (control of growth) [4]: perfectly controlled the growth

SMILES: CCOC(=O)COc1ncccc1Oc1cc(-n2c(=O)cc(C(F)(F)F)n(C)c2=O)c(F)cc1Cl [Compound 3, 3-[2-chloro-4-fluoro-5-(3-methyl-2,6-dioxo-4-trifluoromethyl-1,2,3,6-tetrahydropyrimidin-1-yl)phenoxy]-2-(ethoxycarbonylmethoxy)pyridine]
- herbicidal activity (control of growth) [1]: perfectly controlled the growth
- herbicidal activity (control of growth) [2]: perfectly controlled the growth
- herbicidal activity (control of growth) [3]: perfectly controlled the growth
- herbicidal activity (control of growth) [4]: perfectly controlled the growth

SMILES: COC(=O)COc1ncccc1Oc1cc(-n2c(=O)cc(C(F)(F)F)n(C)c2=O)c(F)cc1Br [Compound 21]
- herbicidal activity (control of growth) [1]: perfectly controlled the growth
- herbicidal activity (control of growth) [2]: perfectly controlled the growth
- herbicidal activity (control of growth) [3]: perfectly controlled the growth
- herbicidal activity (control of growth) [4]: perfectly controlled the growth

SMILES: COC(=O)COc1ncccc1Oc1cc(-n2c(=O)cc(C(F)(F)F)n(C)c2=O)c(F)cc1C#N [Compound 40]
- herbicidal activity (control of growth) [1]: perfectly controlled the growth
- herbicidal activity (control of growth) [2]: perfectly controlled the growth
- herbicidal activity (control of growth) [3]: perfectly controlled the growth
- herbicidal activity (control of growth) [4]: perfectly controlled the growth

SMILES: COC(=O)COc1ncccc1Oc1cc(-n2c(=O)cc(C(F)(F)F)n(C)c2=O)c(F)cc1[N+](=O)[O-] [Compound 59]
- herbicidal activity (control of growth) [1]: perfectly controlled the growth
- herbicidal activity (control of growth) [2]: perfectly controlled the growth
- herbicidal activity (control of growth) [3]: perfectly controlled the growth
- herbicidal activity (control of growth) [4]: perfectly controlled the growth

SMILES: Cn1c(C(F)(F)F)cc(=O)n(-c2cc(Oc3ccc[nH]c3=O)c(Cl)cc2F)c1=O [Compound 76, 3-[2-chloro-4-fluoro-5-(3-methyl-2,6-dioxo-4-trifluoromethyl-1,2,3,6-tetrahydropyrimidin-1-yl)phenoxy]-1H-pyridin-2-one]
- herbicidal activity (control of growth) [1]: perfectly controlled the growth
- herbicidal activity (control of growth) [2]: perfectly controlled the growth
- herbicidal activity (control of growth) [3]: perfectly controlled the growth
- herbicidal activity (control of growth) [4]: perfectly controlled the growth
- melting point: 180.8 °C
